System: Huh-7 cells
Test: alamarBlue cell viability (metabolic activity) assay
Format: cell-based
Details: analogous experiments, FIG. 10
Protocol: The Huh-7 human liver cell line was used.
After 24 h exposure with compounds 7 or 17, the conditioned medium was removed from the cells and used for the LDH leakage assay (see below). Freshly prepared alamarBlue cell viability reagent (Invitrogen, diluted 1:10 in CCM) was added, followed by incubation for 3 h at 37° C. and 5% CO2. The resulting resorufin fluorescence was read using an Optima Fluostar plate reader (BMG Labtech) Ex: 544 nm/Em: 590 nm. Dimethyl sulfoxide 5% and CCM alone (i.e. compounds 7 and 17 0 μM) were used as positive and negative controls for cell death, respectively.

N#Cc1ccc2c(c1)Nc1ncnc3c1c-2cn3[C@@H]1O[C@H](COP(=O)(O)O)[C@@H](O)[C@H]1O [7a, ((2R,3S,4R,5R)-5-(8-cyano-2,3,5,6-tetraazaaceanthrylen-2(6H)-yl)-3,4-dihydroxytetrahydrofuran-2-yl)methyl dihydrogen phosphate]
toxicity (cytotoxicity assessment, monophosphate): non-toxic
